The nature of test [1]: concentration series on yeast TOR reporter LAP4 – cell-based, MLPCN hits, flow cytometry, dose response (AID 2745).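 Note: yeast exposed to compound for three hours at 30 degrees.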 As to conditions: S. cerevisiae LAP4-GFP reporter, flow cytometry fluorescence; at 33 µM (top of the series).
Test [2] has as its system S. cerevisiae LAP4-GFP reporter, flow cytometry fluorescence. The description is as above.

Our source for the LAP4-GFP fluorescence (kMESF) and EC50 values is PubChem BioAssay AID2745 (NMMLSC, 2010).

“And” between values parts separate entries of the source, which are not always exact repeats. Identical values can stand only once. The source made the active and inactive calls. The rule behind the calls is not given here.

With `CN(Cc1cnc2nc(N)nc(N)c2n1)c1ccc(C(=O)N[C@@H](CCC(=O)O)C(=O)O)cc1`, the LAP4-GFP fluorescence (kMESF) in test [1] was 10.8 kMESF (inactive). Also, the 50% effective concentration (EC50) in test [2] was 5.18 µM.

Take `O=C1Oc2ccccc2C(=O)/C1=C/c1ccccc1O`: in test [2], the EC50 was 3.75 µM.

Take `CC(C)(C)n1nc(-c2ccc(F)cc2)c2c(N)ncnc21`: the EC50 in test [2] is 3.51 µM.

Take `Cc1ccc(/C=C2\C(=O)NC(=S)N(c3ccc(F)cc3)C2=O)s1`: the EC50 in test [2] is 1.15 µM.

With `COc1ccc(C(c2c(C)[nH]n(C(N)=S)c2=O)C(C#N)C#N)cc1` (stereo unspecified), the EC50 in test [2] is 2.08 µM.

Consider `CC(Oc1ccc(Cl)cc1)C(=O)NNC(=S)NC(=O)c1ccco1` (stereo unspecified), for which the EC50 in test [2] was 7.2 µM.

With `O=C(Nc1ccccc1)c1nnsc1S(=O)(=O)c1ccc(Cl)cc1`, in test [2], the EC50 was 0.564 µM.

For `Cn1c(=O)c(C(=O)NNC(=O)c2ccc(Br)cc2)c(O)c2ccccc21`, the EC50 in test [2] is 0.762 µM.

Consider `O=[N+]([O-])c1ccc(O)c(/C=N/Nc2ccccn2)c1`, for which the 50% effective concentration (EC50) in test [2] is 12.5 µM.

Regarding `O=[N+]([O-])c1ccc(O)c2ncccc12`, the EC50 in test [2] was 0.607 µM and 0.752 µM.

Consider `O=C(CCc1ccccc1)NNC(=S)NC(=O)c1ccccc1`, for which the EC50 in test [2] was 32.2 µM.

For the compound `O=C(c1ccccc1)c1ccccc1N1C(=O)C=CC1=O`, in test [2], the EC50 was 2 µM.

`COc1ccc(N=Nc2ccc(O)c3ncccc23)cc1`: the EC50 in test [2] was 6.43 µM.

Consider `Cc1ccsc1/C=C1\C(=O)NC(=S)N(C)C1=O`, for which the concentration giving a half-maximal response (EC50) in test [2] was 0.327 µM.

Regarding `Cc1ccc(/C=C2/C(=O)ON=C2c2ccccc2)o1`, the concentration for a half-maximal effect (EC50) in test [2] was 3.48 µM.

As for `O=C1ON=C(c2ccccc2)/C1=C/c1ccco1`, the EC50 in test [2] is 4.26 µM.

Take `O=C1C2C3C=CC(CO)(O3)C2C(=O)N1c1ccc(-c2ccccc2)cc1` (stereo unspecified): the EC50 in test [2] was 1.53 µM.

`Cc1ccc(C(c2cc(Cl)c3cccnc3c2O)N2CCN(C)CC2)cc1` (stereo unspecified): the concentration giving a half-maximal response (EC50) in test [2] is 2.21 µM.

For `O=C1c2ccccc2C(=O)C2OC12` (stereo unspecified), the half-maximal effective concentration (EC50) in test [2] was 19.6 µM.

Regarding `CCOc1ccc(N2C(=O)/C(=C\c3cccs3)C(=O)NC2=S)cc1`, the EC50 in test [2] is 1.96 µM.

In the case of `Cc1cc(S(=O)(=O)ON2C(=O)c3ccccc3C2=O)ccc1F`, in test [2], the EC50 was 4.21 µM.

Take `O=C(C#Cc1ccccc1)c1cccc([N+](=O)[O-])c1`: in test [2], the EC50 was 7.75 µM.

For `COc1ccc(C(=O)/C=C2/C(=O)Nc3ccccc32)cc1`, the EC50 in test [2] was 3.38 µM.

Turning to `CC(Oc1cccc(Cl)c1)C(=O)Nc1nc(-c2ccccn2)cs1` (stereo unspecified), the EC50 in test [2] is 25.1 µM.

`Cc1ccc(C2=NOC(=O)/C2=C\c2ccc(C)o2)cc1`: in test [2], the EC50 is 4.47 µM.

As to `CC(Oc1ccc(Br)cc1)C(=O)Nc1nc(-c2ccccn2)cs1` (stereo unspecified), the EC50 in test [2] is 4 µM.

Take `CCc1ccc(OCC(=O)NNC(=S)NC(=O)C2CC2)c(Br)c1`: the EC50 in test [2] was 5.45 µM.

For the compound `CCc1ccc2c(c1)/C(=C/C(=O)c1cccs1)C(=O)N2`, the EC50 in test [2] was 4.07 µM.

For `Cc1ccccc1N=Nc1ccc(O)c2ncccc12`, the EC50 in test [2] was 7.96 µM.

Turning to `COc1ccc(N2C(=O)C(Cl)=C(Oc3cccc(OC)c3)C2=O)cc1`, the EC50 in test [2] is 4.89 µM.

Turning to `O=C(c1ccc(C(=O)N2CCCc3ccccc32)s1)N1CCCc2ccccc21`, in test [2], the EC50 was 7.77 µM.

Consider `CCc1sc(C(=O)Nc2nc(-c3ccccn3)cs2)cc1C`, for which the 50% effective concentration (EC50) in test [2] is 3.94 µM.

As to `Cc1c(C(=O)Nc2nc(-c3ccccn3)cs2)oc2ccccc12`, the EC50 in test [2] was 4.01 µM.

In the case of `O=C(NC(=S)NNC(=O)c1cnccn1)c1ccc(F)cc1`, in test [2], the EC50 is 7.94 µM.

On to `Cc1cccc2c1NC(=O)/C2=C\C(=O)c1cccs1`, for which the EC50 in test [2] was 5.59 µM.
